Data taken from US12077501B2, “Compounds and compositions for intracellular delivery of agents” (ModernaTX, Inc., priority 2017, dated 2024).

Legend:
[1] = Lipid clearance: % dose remaining in liver of CD-1 mice; format: in vivo; conditions: intravenous, 0.5 mg/kg, CD-1 mouse, Table 8a
Method in brief: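 Nanoparticle compositions containing the test compound were dosed to CD-1 mice at 0.5 mpk, and hEPO expression was measured. Clearance data were collected from the same compositions.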

[2] = pKa of nanoparticle compositions; format: physicochemical; conditions: Table 1c
[3] = Lipid purity change after storage in EtOH for 96 h at 25 or 37 °C; format: physicochemical
Experimental: Nanoparticle compositions including a therapeutic and/or prophylactic agent can be optimized according to the selection of a compound according to one of formulae (I), (Ia1)-(Ia10), (Ib), (Ic), (Id), (Id1)-(Id10), (Ie), (Ie1)-(Ie6), (II), (IIa), (III), and (IIIa), the selection of additional lipids, the amount of each lipid in the lipid component, and the wt:wt ratio of the lipid component to the therapeutic and/or prophylactic agent, as described herein. Initial studies were performed to compare the delivery efficiency of nanoparticle compositions including various compounds according to one of formulae (I), (Ia1)-(Ia10), (Ib), (Ic), (Id), (Id1)-(Id10), (Ie), (Ie1)-(Ie6), (II), (IIa), (III), and (IIIa). The cationic lipid MC3 is a current standard in the art. Also determined was the stability of nanoparticles of the disclosure, i.e., the purity after storage in EtOH for 96h at 25° C. or 37° C. (Table Id).

hEPO expression = hEPO expression in CD-1 mice compared with MC3; format: in vivo; conditions: intravenous, 0.5 mpk, Table 7e
Source text: In contrast, hEPO expression in rats induced by administration of a nanoparticle composition including a compound according to one of formulae (I), (Ia1)-(Ia6), (Ib), (II), (IIa), (III), and (IIIa) was substantially […] than that measured for MC3. […] Tables 7c and 7d show additional protein expressions and clearance data from compositions with various compounds disclosed herein as compared to with MC3. Tables 7e, 7f and 7g show hEPO expression data in CD-1 mice at a dose of 0.5 mpk.

[4] = Particle size and polydispersity index of nanoparticle compositions (Zetasizer Nano ZS); format: physicochemical; conditions: Table 1c; nanoparticle compositions
Experimental: A Zetasizer Nano ZS (Malvem Instruments Ltd, Malvem, Worcestershire, UK) can be used to determine the particle size, the polydispersity index (PDI) and the zeta potential of the nanoparticle compositions in 1×PBS in determining particle size and 15 mM PBS in determining zeta potential.

[5] = Encapsulation efficiency of RNA (QUANT-IT RIBOGREEN RNA assay); format: physicochemical; conditions: Table 1c; nanoparticle compositions
Method in brief: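 Samples diluted to about 5 μg/mL RNA in TE buffer pH 7.5, treated with buffer or 2% Triton X-100 for 15 min at 37° C, then stained with RiboGreen (1:100). Fluorescence at about 480/520 nm, blank-subtracted; free RNA fraction is intact over Triton-disrupted signal.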

| Structure (SMILES) | % Dose Remaining 24 hr [1] | pKa [2] | Lipid % change purity in EtOH, 25° C., 96 h [3] | Lipid % change purity in EtOH, 37° C., 96 h [3] | AUC (p/s*h) CD-1 mice 0.5 mpk (hEPO expression) | PDI [4] | Size (nm) [4] | EE (%) [5] |
| --- | --- | --- | --- | --- | --- | --- | --- | --- |
| CCCCCCCCCCCCCCN(CCCCCC(=O)OCCCCCCC)CC(=O)N1CCN(C(=O)CN(CCCCCCCCC)CCN(CCCCCCCCC)CCCCCCCCC)CC1 [Compound 91, Heptyl 6-((2-(4-(N-(2-(dinonylamino)ethyl)-N-nonylglycyl)piperazin-1-yl)-2-oxoethyl)(tetradecyl)amino)hexanoate] | 9.19% | 6.74 | 1% | 2.3% | 3.22E+07 p/s*h | 0.21 | 82.9 nm | 97.6% |
| CCCCCCCCCCCCCCN(CCCOC(=O)CCCCCCCCC)CCC1CCN(C(=O)CN(CCCCCCCCC)CCN(CCCCCCCCC)CCCCCCCCC)CC1 [Compound 92, 3-((2-(1-(N-(2-(Dinonylamino)ethyl)-N-nonylglycyl)piperidin-4-yl)ethyl)(tetradecyl)amino)propyl decanoate] | 0.10% | 6.53 | 4.5% | 9% | 8.25E+07 p/s*h | 0.17 | 73.8 nm | 97.1% |
| CCCCCCCCCCCCCCN(CCCCCCCC(=O)OCCCCC)CCC1CCN(C(=O)CN(CCCCCCCCC)CCN(CCCCCCCCC)CCCCCCCCC)CC1 [Compound 93, Pentyl 8-((2-(1-(N-(2-(dinonylamino)ethyl)-N-nonylglycyl)piperidin-4-yl)ethyl)(tetradecyl)amino)octanoate] | 10.37% | 6.6 | 0% | 2.2% | 8.63E+07 p/s*h | 0.17 | 75.6 nm | 97.7% |
| CCCCCCCCCCCCCCN(CCCCCC(=O)OCCCCCCC)CCC1CCN(C(=O)CN(CCCCCCCCC)CCN(CCCCCCCCC)CCCCCCCCC)CC1 [Compound 94, Heptyl 6-((2-(1-(N-(2-(dinonylamino)ethyl)-N-nonylglycyl)piperidin-4-yl)ethyl)(tetradecyl)amino)hexanoate] | 18.52% | 6.65 | 5.9% | 8.3% | 2.39E+07 p/s*h | 0.20 | 74.6 nm | 98.4% |
| CCCCCCCCCN(CCCCCCCCC)CCN(CCCCCCCCC)CC(=O)N1CCC(CCOC(=O)CN(CCCCCCCCC)CCCCCCCCC)C1 (centres unmarked) [Compound 103, 2-(1-(N-(2-(Dinonylamino)ethyl)-N-nonylglycyl)pyrrolidin-3-yl)ethyl Dinonylglycinate] | 71.45% | 7.25 | 1.5% | 5.7% | 1.82E+08 p/s*h | 0.17 | 76.9 nm | 99.0% |
| CC/C=C\COC(=O)CCCN(CCCCCCCCC)CC(=O)N1CCN(C(=O)CN(CCCCCCCCC)CCN(CCCCCCCCC)CCCCCCCCC)CC1 [Compound 107, (Z)-Pent-2-en-1-yl 4-((2-(4-(N-(2-(dinonylamino)ethyl)-N-nonylglycyl)piperazin-1-yl)-2-oxoethyl)(nonyl)amino)butanoate] | 38.15% | 6.99 | 4% | 3.6% | 1.76E+08 p/s*h | 0.19 | 80.6 nm | 96.6% |
| CCCCCCCCCN(CCCCCCCCC)CCN(CCCCCCCCC)CC(=O)N1CCN(C(=O)CN(CCCCCCCCC)CCCCCOC(=O)OC)CC1 [Compound 109, 5-((2-(4-(N-(2-(Dinonylamino)ethyl)-N-nonylglycyl)piperazin-1-yl)-2-oxoethyl)(nonyl)amino)pentyl methyl carbonate] | 0.54% | 7.27 | 0% | 4.1% | 5.56E+07 p/s*h | 0.16 | 75.0 nm | 95.0% |
| CCCCCCCCCN(CCCCCCCCC)CCN(CCCCCCCCC)CC(=O)N1CCN(C(=O)C(C)N(CCCCCCCCC)CCCC(=O)OCCCCC)CC1 (centres unmarked) [Compound 111, Pentyl 4-((1-(4-(N-(2-(dinonylamino)ethyl)-N-nonylglycyl)piperazin-1-yl)-1-oxopropan-2-yl)(nonyl)amino)butanoate] | 59.89% | 6.82 | 6.3% | 6.5% | 1.75E+08 p/s*h | 0.21 | 86.8 nm | 96.7% |
| CCCCCCCCCN(CCCCCCCCC)CCN(CCCCCCCCC)CC(=O)N1CCC(CCOC(=O)CN(CCCCCCCCC)CCCCCCCCC)CC1 [Compound 114, 2-(1-(N-(2-(Dinonylamino)ethyl)-N-nonylglycyl)piperidin-4-yl)ethyl dinonylglycinate] | 38.43% | 6.64 | 2.6% | 9% | 7.86E+07 p/s*h | 0.23 | 77.2 nm | 98.1% |
| CCCCCCCCCN(CCCCCCCCC)CCN(CCCCCCCCC)CC(=O)OC1CCC(OC(=O)CN(CCCCCCCCC)CCCCCCCCC)CC1 (centres unmarked) [Compound 115, 4-((N-(2-(Dinonylamino)ethyl)-N-nonylglycyl)oxy)cyclohexyl dinonylglycinate] | 82.18% | 5.01 | 43.1% | 59.5% | 2.31E+06 p/s*h | 0.16 | 66.0 nm | 97.0% |
| CCCCCCCCCCCCCCN(CCCCCCCCCCCC(=O)OC)CCC1CCN(C(=O)CN(CCCCCCCCC)CCN(CCCCCCCCC)CCCCCCCCC)CC1 [Compound 116, Methyl 12-((2-(1-(N-(2-(dinonylamino)ethyl)-N-nonylglycyl)piperidin-4-yl)ethyl)(tetradecyl)amino)dodecanoate] | 6.22% | 6.55 | 2.2% | 2% | 1.01E+08 p/s*h | 0.19 | 77.1 nm | 98.9% |
| CCCCCCCCCCCCCCN(CCCCCCCCCCCC(=O)OC)CC(=O)N1CCN(C(=O)CN(CCCCCCCCC)CCN(CCCCCCCCC)CCCCCCCCC)CC1 [Compound 117, Methyl 12-((2-(4-(N-(2-(dinonylamino)ethyl)-N-nonylglycyl)piperazin-1-yl)-2-oxoethyl)(tetradecyl)amino)dodecanoate] | 2.03% | 6.71 | 2.9% | 4.7% | 6.91E+07 p/s*h | 0.20 | 84.6 nm | 95.2% |
| CCCCCCCCCCCCCCN(CCCCCCCC(=O)OCCCCC)CCC1CCCN(C(=O)CN(CCCCCCCCC)CCN(CCCCCCCCC)CCCCCCCCC)C1 (centres unmarked) [Compound 120, Pentyl 8-((2-(1-(N-(2-(dinonylamino)ethyl)-N-nonylglycyl)piperidin-3-yl)ethyl)(tetradecyl)amino)octanoate] | 9.32% | 6.49 | 0.8% | 2.9% | 4.17E+07 p/s*h | 0.21 | 78.7 nm | 99.0% |
